Laboratory results as given in patent US10100010B1, “4-methoxy pyrrole derivatives or salts thereof and pharmaceutical composition comprising the same” (Daewoong Pharmaceutical Co., Ltd., priority 2015, dated 2018).
Where a name gives a salt, the structure may show the parent alone. Read-outs that look alike come from different tables or passages of the source.

Assays:
Type in all cases: cell-based
5-HT2A = 5-HT2A (Homo sapiens, UniProt P28223); experiment: GPCR Calcium Flux assay (FLIPR tetra, Eurofins), 5-HT2A; settings: for IC50: 8 concentrations 10 to 0.0006 uM, read-out: 50% inhibitory concentration (IC50) 5-HT2A; for inhibition at 10 µM: read-out: inhibition rate (%) 5-HT2A
Description: (§1) In order to confirm whether the compounds prepared in the above Examples act as an agonist or antagonist against GPCR Target, Calcium Flux assay was performed in an assay plate in which the compounds prepared in the Examples, vehicle controls, and reference compounds were added, using a Fluorometric imaging plate reader (FLIPR tetra) equipment.
(§2) Calcium Flux assay was evaluated by entrusting the GPCR profiler assay in Safety panel assays with Eurofins. By using the Fluo-8AM calcium dye, excitation was measured at a wavelength in the range of 470 to 495 nm and Emission was measured at a wavelength in the range of 515-575 nm. GPCR Assay Buffer for Calcium Flux assay was prepared by adding 20 mM of HEPES and 2.5 mM of Probenecid to Hanks Balanced Salt Solution (HBSS) to have pH 7.4. The Compounds of Examples for evaluation of the GPCR were diluted with DMSO at a concentration of 10 mM to make a stock and then prepared by diluting in the GPCR Assay Buffer at the concentration equivalent to three times the final concentration. First, for the evaluation of GPCRs, the inhibitory activity of the compounds of the Examples was evaluated at a single concentration of 10 uM, and then the respective selected targets were four fold-diluted from 10 uM to the low side to calculate 50% inhibitory concentration (IC50), prepared at the total 8 concentrations of 10, 2.5, 0.62, 0.15, 0.04, 0.01, 0.0024, 0.0006 uM, and Calcium Flux assay for GPCR was conducted. In order to evaluate the agonist and antagonist, % inhibition rate against GPCR activity before and after treatment of the compounds and the inhibitory activity of the compounds of the Examples were determined.
(§3) As a result, when the efficacy of […] and acetylcholine of the compounds prepared in the Examples was 100%, the inhibition rate (%) at a single concentration of 10 uM was evaluated and shown in Table 8.

M2 = molecular target: T1, M2 (Homo sapiens, UniProt P08172); experiment: GPCR Calcium Flux assay (FLIPR tetra, Eurofins), M2; settings: for inhibition at 10 µM: read-out: inhibition rate (%) M2
T1 sequence (P08172 1-466): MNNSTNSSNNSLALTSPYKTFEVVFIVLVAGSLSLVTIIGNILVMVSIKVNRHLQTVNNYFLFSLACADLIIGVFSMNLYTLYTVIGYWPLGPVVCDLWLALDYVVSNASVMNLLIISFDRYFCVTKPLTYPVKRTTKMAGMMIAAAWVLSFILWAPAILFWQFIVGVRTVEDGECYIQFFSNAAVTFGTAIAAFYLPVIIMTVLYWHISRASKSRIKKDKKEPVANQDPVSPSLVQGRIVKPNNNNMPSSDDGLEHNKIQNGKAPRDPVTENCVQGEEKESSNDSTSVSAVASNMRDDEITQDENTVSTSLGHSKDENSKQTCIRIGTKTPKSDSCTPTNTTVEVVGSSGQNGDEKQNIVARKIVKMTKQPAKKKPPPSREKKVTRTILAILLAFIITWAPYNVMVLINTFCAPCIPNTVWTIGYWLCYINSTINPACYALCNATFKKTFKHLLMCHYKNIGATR
Description: as §1, §2, §3

M1 = molecular target: T2, M1 (Homo sapiens, UniProt P11229); experiment: GPCR Calcium Flux assay (FLIPR tetra, Eurofins), M1; settings: for IC50: 8 concentrations 10 to 0.0006 uM, read-out: 50% inhibitory concentration (IC50) M1; for inhibition at 10 µM: read-out: inhibition rate (%) M1
T2 sequence (P11229 1-460): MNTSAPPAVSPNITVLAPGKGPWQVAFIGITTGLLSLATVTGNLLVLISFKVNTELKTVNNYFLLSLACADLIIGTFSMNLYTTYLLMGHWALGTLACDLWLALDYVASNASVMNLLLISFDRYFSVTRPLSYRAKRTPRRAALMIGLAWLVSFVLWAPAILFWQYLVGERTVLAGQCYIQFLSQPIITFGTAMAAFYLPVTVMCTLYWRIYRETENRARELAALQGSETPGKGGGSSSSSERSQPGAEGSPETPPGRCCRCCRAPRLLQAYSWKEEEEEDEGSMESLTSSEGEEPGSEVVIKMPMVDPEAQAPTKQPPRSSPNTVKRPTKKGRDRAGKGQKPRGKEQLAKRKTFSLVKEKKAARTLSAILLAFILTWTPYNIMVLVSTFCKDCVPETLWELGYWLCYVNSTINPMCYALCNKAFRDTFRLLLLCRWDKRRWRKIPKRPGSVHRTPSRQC
Description: as §1, §2, §3

Chain of 5-HT2A (P28223 whole entry): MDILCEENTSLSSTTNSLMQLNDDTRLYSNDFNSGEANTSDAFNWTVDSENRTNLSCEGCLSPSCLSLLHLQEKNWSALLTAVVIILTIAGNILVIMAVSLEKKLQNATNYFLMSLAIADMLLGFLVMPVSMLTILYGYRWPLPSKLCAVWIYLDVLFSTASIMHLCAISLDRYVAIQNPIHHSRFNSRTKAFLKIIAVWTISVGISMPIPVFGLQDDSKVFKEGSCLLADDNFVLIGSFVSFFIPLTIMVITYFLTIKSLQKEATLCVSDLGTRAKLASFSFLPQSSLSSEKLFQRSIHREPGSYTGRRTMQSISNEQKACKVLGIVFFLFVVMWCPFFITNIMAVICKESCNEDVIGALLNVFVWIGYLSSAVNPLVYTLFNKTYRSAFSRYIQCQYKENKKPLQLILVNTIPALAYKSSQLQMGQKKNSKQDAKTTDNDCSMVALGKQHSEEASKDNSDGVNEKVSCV

| Structure (SMILES) | IC50 (5-HT2A) [nM] | inhibition at 10 µM (5-HT2A) [%] | inhibition at 10 µM (M2) [%] | IC50 (M1) [nM] | inhibition at 10 µM (M1) [%] | inhibition at 10 µM (5-HT2A; single concentration of 10 uM) [%] | inhibition at 10 µM (M2; single concentration of 10 uM) [%] | inhibition at 10 µM (M1; single concentration of 10 uM) [%] | IC50 (M2; 8 concentrations 10 to 0.0006 uM, read-out: 50% inhibitory concentration (IC50) M2) [nM] |
| --- | --- | --- | --- | --- | --- | --- | --- | --- | --- |
| CNCc1cn(S(=O)(=O)c2cccc(C)c2)c(-c2c(F)cccc2F)c1OC [Example 16, 1-(5-(2,6-difluorophenyl)-1-((3-methylphenyl)sulfonyl)-4-methoxy-1H-pyrrol-3-yl)-N-methylmethanamine fumarate] | 58 | 102 | 69.7 | 1900 | 95.4 | – | – | – | – |
| CNCc1cn(S(=O)(=O)c2cccc(OC)c2)c(-c2ccccc2Cl)c1OC [Example 5, 1-(5-(2-chlorophenyl)-4-methoxy-1-((3-methoxyphenyl)sulfonyl)-1H-pyrrol-3-yl)-N-methylmethanamine hydrochloride] | – | – | – | – | – | 69.1 | 75.1 | 93.7 | – |
| CNCc1cn(S(=O)(=O)c2cccc(F)c2)c(-c2cc(F)ccc2F)c1OC [Example 31, 1-(5-(2,5-difluorophenyl)-1-((3-fluorophenyl)sulfonyl)-4-methoxy-1H-pyrrol-3-yl)-N-methylmethanamine hydrochloride] | 42 | – | – | 73 | – | 101 | 98.6 | 100 | – |
| CNCc1cn(S(=O)(=O)c2cccc(OC)c2)c(-c2cc(F)ccc2F)c1OC [Example 33, 1-(5-(2,5-difluorophenyl)-1-((3-methoxyphenyl)sulfonyl)-4-methoxy-1H-pyrrol-3-yl)-N-methylmethanamine hydrochloride] | 1700 | – | – | – | – | 96.7 | 29 | 81.5 | – |
| CNCc1cn(S(=O)(=O)c2cccc(Cl)c2)c(-c2ccc(Cl)cc2F)c1OC [Example 6, 1-(5-(2-fluoro-4-chlorophenyl)-4-methoxy-1-((3-chlorophenyl)sulfonyl)-1H-pyrrol-3-yl)-N-methylmethanamine hydrochloride] | 160 | – | – | ~3000 | – | 102 | 15.1 | 93.1 | – |
| CNCc1cn(S(=O)(=O)c2cccc(C(F)(F)F)c2)c(-c2cc(F)ccc2F)c1OC [Example 32, 1-(5-(2,5-difluorophenyl)-1-((3-trifluoromethylphenyl)sulfonyl)-4-methoxy-1H-pyrrol-3-yl)-N-methylmethanamine hydrochloride] | – | – | – | – | – | 10.6 | 10.8 | 52.6 | – |
| CNCc1cn(S(=O)(=O)c2cccc(C(F)(F)F)c2)c(-c2c(F)cc(F)cc2F)c1OC [Example 24, 1-(1-((3-trifluoromethylphenyl)sulfonyl)-4-methoxy-5-(2,4,6-trifluorophenyl)-1H-pyrrol-3-yl)-N-methylmethanamine hydrochloride] | 62 | – | – | > 1000 | – | 62.2 | 22 | 93.4 | > 10000 |
| CNCc1cn(S(=O)(=O)c2cccc(Cl)c2)c(-c2ccccc2F)c1OC [Example 1, 1-(5-(2-fluorophenyl)-4-methoxy-1-((3-chlorophenyl)sulfonyl)-1H-pyrrol-3-yl)-N-methylmethanamine hydrochloride] | 250 | – | – | 1700 | – | 96.4 | 66.5 | 99.6 | – |
